According to ChEMBL document CHEMBL1909046, “DrugMatrix in vitro pharmacology data”:

What was measured:
Carbonic anhydrase 2 = Carbonic anhydrase 2 (Homo sapiens, UniProt P00918); assay: DRUGMATRIX: Carbonic Anhydrase II enzyme inhibition (substrate: 4-Nitrophenyl acetate (4-NPA)); type: tissue-based, Erythrocyte; details: erythrocyte; Not Active = under 50% inhibition at 10 µM
[1] = biological target: T1, Type-2 angiotensin II receptor (Homo sapiens, UniProt P50052); assay: biochemical; type: cell-based, CHO-K1; details: cho-k1; also: in other assays of this panel Not Active means under 50% inhibition at 10 µM
T1 sequence (P50052 whole entry): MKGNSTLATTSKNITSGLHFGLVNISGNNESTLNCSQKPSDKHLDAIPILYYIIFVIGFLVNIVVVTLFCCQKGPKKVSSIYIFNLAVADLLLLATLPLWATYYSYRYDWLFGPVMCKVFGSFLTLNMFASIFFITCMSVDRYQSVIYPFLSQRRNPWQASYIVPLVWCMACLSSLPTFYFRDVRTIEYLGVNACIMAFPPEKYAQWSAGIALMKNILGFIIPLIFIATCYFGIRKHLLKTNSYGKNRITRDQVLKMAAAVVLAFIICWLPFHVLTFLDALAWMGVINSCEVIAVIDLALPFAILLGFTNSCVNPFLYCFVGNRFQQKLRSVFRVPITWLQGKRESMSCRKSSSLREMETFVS

[2] = biological target: T2, Muscarinic acetylcholine receptor M2 (Homo sapiens, UniProt P08172); type: cell membranes, CHO-K1, Membrane; also: in other assays of this panel Not Active means under 50% inhibition at 10 µM
T2 sequence (P08172 whole entry): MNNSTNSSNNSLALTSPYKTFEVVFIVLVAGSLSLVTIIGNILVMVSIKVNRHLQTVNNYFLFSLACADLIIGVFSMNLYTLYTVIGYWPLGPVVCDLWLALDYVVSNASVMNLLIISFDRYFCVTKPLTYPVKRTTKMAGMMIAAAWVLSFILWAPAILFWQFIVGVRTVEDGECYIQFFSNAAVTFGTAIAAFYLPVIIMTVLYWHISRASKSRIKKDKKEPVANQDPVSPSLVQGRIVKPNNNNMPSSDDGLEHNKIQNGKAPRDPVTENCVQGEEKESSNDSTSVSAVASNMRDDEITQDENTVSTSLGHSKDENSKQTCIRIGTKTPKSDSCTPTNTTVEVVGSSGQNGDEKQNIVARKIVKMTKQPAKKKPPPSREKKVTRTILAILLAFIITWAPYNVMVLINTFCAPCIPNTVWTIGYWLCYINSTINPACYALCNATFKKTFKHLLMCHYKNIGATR

Interstitial collagenase = biological target: T3, Interstitial collagenase (Homo sapiens, UniProt P03956); assay: biochemical; type: tissue-based, Rheumatoid synovial fibroblasts;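 also: MMP-1 enzyme inhibition assay using a peptide substrate; in other assays of this panel Not Active means under 50% inhibition at 10 µM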
T3 sequence (P03956 whole entry): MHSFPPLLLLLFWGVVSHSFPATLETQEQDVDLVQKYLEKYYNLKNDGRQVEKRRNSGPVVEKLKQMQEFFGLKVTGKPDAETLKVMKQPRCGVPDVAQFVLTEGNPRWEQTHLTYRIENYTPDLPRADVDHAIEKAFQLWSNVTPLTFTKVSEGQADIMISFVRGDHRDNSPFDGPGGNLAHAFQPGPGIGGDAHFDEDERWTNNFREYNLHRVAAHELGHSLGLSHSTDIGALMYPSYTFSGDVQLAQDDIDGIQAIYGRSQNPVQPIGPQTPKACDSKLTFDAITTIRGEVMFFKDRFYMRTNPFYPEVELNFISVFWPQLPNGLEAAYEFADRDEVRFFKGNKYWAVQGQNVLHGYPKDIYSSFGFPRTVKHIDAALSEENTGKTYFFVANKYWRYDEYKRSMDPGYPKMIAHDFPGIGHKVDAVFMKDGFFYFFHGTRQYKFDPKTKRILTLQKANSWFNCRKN

[3] = biological target: T4, Alpha-2C adrenergic receptor (Homo sapiens, UniProt P18825); assay: DRUGMATRIX: Adrenergic Alpha-2C radioligand binding (ligand: [3H] MK-912); type: cell membranes, Sf9, Membrane; details: sf9
T4 sequence (P18825 whole entry): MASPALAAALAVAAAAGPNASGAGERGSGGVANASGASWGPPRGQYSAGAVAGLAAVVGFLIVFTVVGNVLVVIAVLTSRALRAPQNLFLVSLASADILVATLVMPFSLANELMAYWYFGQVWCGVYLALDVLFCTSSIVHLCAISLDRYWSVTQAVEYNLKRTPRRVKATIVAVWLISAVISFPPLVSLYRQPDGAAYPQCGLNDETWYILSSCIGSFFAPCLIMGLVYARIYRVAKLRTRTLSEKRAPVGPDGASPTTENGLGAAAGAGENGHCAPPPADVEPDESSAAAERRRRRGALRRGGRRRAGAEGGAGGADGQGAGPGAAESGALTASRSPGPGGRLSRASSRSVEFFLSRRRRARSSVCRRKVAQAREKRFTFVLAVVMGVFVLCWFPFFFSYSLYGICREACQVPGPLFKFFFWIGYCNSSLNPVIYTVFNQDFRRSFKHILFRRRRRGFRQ

[4] = DRUGMATRIX: Interleukin IL-1 radioligand binding (ligand: [125I] interleukin 1beta); type: cell membranes, Membrane; details: nih3t3; Not Active = under 50% inhibition at 10 µM
Acetylcholinesterase = Acetylcholinesterase (Homo sapiens, UniProt P22303); assay: DRUGMATRIX: Acetylcholinesterase enzyme inhibition (substrate: acetylthiocholine); type: cell-based, HEK293; details: hek293; Not Active = under 50% inhibition at 10 µM
Chain of Acetylcholinesterase (P22303 whole entry): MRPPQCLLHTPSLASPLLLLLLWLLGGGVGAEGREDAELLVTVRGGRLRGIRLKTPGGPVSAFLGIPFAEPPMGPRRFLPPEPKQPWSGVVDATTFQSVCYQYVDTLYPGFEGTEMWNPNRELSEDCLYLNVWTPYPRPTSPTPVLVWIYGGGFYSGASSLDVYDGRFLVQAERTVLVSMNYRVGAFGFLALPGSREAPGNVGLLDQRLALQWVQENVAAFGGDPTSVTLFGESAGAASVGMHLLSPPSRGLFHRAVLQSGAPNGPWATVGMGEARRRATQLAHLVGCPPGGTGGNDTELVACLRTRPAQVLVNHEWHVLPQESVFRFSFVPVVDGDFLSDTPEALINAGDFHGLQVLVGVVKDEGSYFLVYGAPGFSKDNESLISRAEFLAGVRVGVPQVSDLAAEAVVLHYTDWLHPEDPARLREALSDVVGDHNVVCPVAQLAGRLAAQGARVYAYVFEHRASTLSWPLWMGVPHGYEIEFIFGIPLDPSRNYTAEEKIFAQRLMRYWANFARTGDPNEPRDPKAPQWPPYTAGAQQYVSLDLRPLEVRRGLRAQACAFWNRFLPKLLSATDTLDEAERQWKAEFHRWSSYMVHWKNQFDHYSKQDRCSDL

SMILES	IC50 (Carbonic anhydrase 2)	IC50 [1]	IC50 ([2]; cho-k1)	IC50 (Interstitial collagenase)	IC50 [3]	IC50 [4]	Ki [4]	IC50 (Acetylcholinesterase)	IC50 ([2]; read-out: IC50) [nM]	Ki ([2]; read-out: Ki) [nM]	IC50 (Interstitial collagenase; read-out: IC50) [nM]
C[C@H]1COc2c(N3CCN(C)CC3)c(F)cc3c(=O)c(C(=O)O)cn1c23.C[C@H]1COc2c(N3CCN(C)CC3)c(F)cc3c(=O)c(C(=O)O)cn1c23.O [LEVOFLOXACIN]	Not Active	Not Active	Not Active	Not Active	Not Active	Not Active	Not Active	Not Active			
CCn1cc(C(=O)O)c(=O)c2cc(F)c(N3CCNC(C)C3)c(F)c21 (configuration not stated) [LOMEFLOXACIN]	Not Active	Not Active	Not Active	Not Active	Not Active	Not Active	Not Active	Not Active			
CN1CCCC(CN2c3ccccc3Sc3ccccc32)C1 (configuration not stated) [MEPAZINE]	Not Active	Not Active		Not Active	Not Active	Not Active	Not Active	Not Active	565	201	
Cc1cccc(C)c1NC(=O)C1CCCCN1C (configuration not stated) [MEPIVACAINE]	Not Active	Not Active	Not Active	Not Active	Not Active	Not Active	Not Active	Not Active			
CN(C)C(=N)NC(=N)N [METFORMIN]	Not Active	Not Active	Not Active	Not Active	Not Active	Not Active	Not Active	Not Active			
CC(C)(C)NCC(O)COc1cccc2c1CC(O)C(O)C2 (configuration not stated) [NADOLOL]	Not Active	Not Active	Not Active	Not Active	Not Active	Not Active	Not Active	Not Active			
C[C@]12CC[C@H]3[C@@H](CCC4=CC(=O)CC[C@@H]43)[C@@H]1CC[C@@H]2O [NANDROLONE]	Not Active	Not Active	Not Active	Not Active	Not Active	Not Active	Not Active	Not Active			
C[C@@H]1C/C=C/C=C/C=C/C=C/[C@H](O[C@@H]2O[C@H](C)[C@@H](O)[C@H](N)[C@@H]2O)C[C@@H]2O[C@](O)(C[C@@H](O)C[C@H]3O[C@@H]3/C=C/C(=O)O1)C[C@H](O)[C@H]2C(=O)O [NATAMYCIN]	Not Active	Not Active	Not Active	Not Active	Not Active	Not Active	Not Active	Not Active			
NC(=O)c1cccnc1 [NIACINAMIDE]	Not Active	Not Active	Not Active	Not Active	Not Active	Not Active	Not Active	Not Active			
CS(=O)(=O)Nc1ccc([N+](=O)[O-])cc1Oc1ccccc1 [NIMESULIDE]	Not Active	Not Active	Not Active		Not Active	Not Active	Not Active	Not Active			23300
CN1C(=O)CN=C(c2ccccc2)c2cc([N+](=O)[O-])ccc21 [NIMETAZEPAM]	Not Active	Not Active	Not Active	Not Active	Not Active	Not Active	Not Active	Not Active			
COc1ccc2c(c1OC)C(=O)O[C@@H]2[C@H]1c2c(cc3c(c2OC)OCO3)CCN1C [NOSCAPINE]	Not Active	Not Active	Not Active	Not Active	Not Active	Not Active	Not Active	Not Active			
